The term inhibition denotes how much of the control response was suppressed.

Test [1] concerns Human neuroblastoma cell line (SK-N-AS). In words: Inhibition of SK-N-AS cell proliferation (CellTiter luminescent viability). Type of test: cell-based. The following applies: Table II2, EZH2 inhibitor-based, 96 hours. How it is done: (§1) The tumor cells used herein were cultured in a cell culture medium listed in table 3 at 37 °C in an incubator with 5% CO2. Prior to experimentation, all cell lines used were correctly identified by STR profiling, and tested negative for mycoplasma contamination using a mycoplasma detection kit through routine screenings.
(§2) The IC50 values of the compounds of the present disclosure (including the compounds in Table 1, Table 2, and Examples 1-468) were determined using the CellTiter-Meiluncell Luminescent Cell Viability Assay Kit from Dalian Meilun Biotech Co., Ltd. The detailed procedure is as follows: Tumor cells were seeded in 96-well cell culture plates at the densities specified in Table 4. On the following day, the test compounds of the present disclosure were subjected to serial dilution. The dilution can be performed according to one of the following two methods: • (1) The first dilution method: The test compounds of the present disclosure (including the compounds in Table 1, Table 2, and Examples 1-468) were subjected to 5-fold serial dilutions starting from a highest concentration of 2000 μM, resulting in a total of 9 concentrations from high to low (2000, 400, 80, 16, 3.2, 0.64, 0.128, 0.0256, 0.00512 μM). Subsequently, 0.5 μL of the test compound dilution was transferred into the 96-well plate containing the cells, with each well containing 100 μL of cell culture medium. […] Into the 96-well plate, the diluted test compounds and corresponding detection reagents were added, resulting in final test compound concentrations of 500 nM and 10 nM, respectively. The experimental procedure is described below using the diluted 2 μM test compound as an example.
(§3) 0.5 μL of the aforementioned diluted compound of the present disclosure (including the compounds in Table 1, Table 2, and Examples 1-468) was added to the seeded cells in 100 μL of medium, yielding a final test compound concentration of 10 nM. After the cells were treated with the compounds of the present disclosure for a specified period, the cell viability assay reagent was added to the culture medium according to the kit's instructions to determine cell viability. […] All controls were treated using the same procedure as the compounds of the present disclosure. The growth inhibition curves for the compounds of the present disclosure were plotted using Prism GraphPad software, and the IC50 values were calculated therefrom.

For test [2], the target named is T1, human Cereblon WT GST-tagged protein (CRBN) (Homo sapiens, UniProt Q96SW2).
T1 construct: purchased CISBIO 64BDCRBNPEH
In words: CRBN binding by HTRF (Cereblon binding kit). In a few lines: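 GST-tagged human Cereblon WT was incubated 3 h at room temperature with compound, thalidomide-Re tracer and Eu anti-GST antibody. Final compound concentrations were 10 to 0.00064 µM (7 points) or 2 and 0.5 µM. Inhibition rate was calculated from HTRF 665/620 nm ratios versus solvent and blank controls.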
(In general: In TR-FRET formats the signal depends on donor and acceptor labels being close together.)

Test [3] concerns Human myeloid monocytic leukemia cell line (MV-4-11). In words: Inhibition of MV-4-11 cell proliferation (CellTiter luminescent viability). The following applies: for IC50: Table IE1, CDK4/6 inhibitor-based, MV-4-11, 96 hours, read-out: Inhibitory activity (IC50, nM) on tumor cell proliferation, MV-4-11; for inhibition at 0.01 µM / inhibition at 0.5 µM: Homo sapiens, MV4-11, Table IE3, CDK4/6 inhibitor-based, 96 hours; for inhibition at 0.01 µM: MV-4-11, 10 nM, read-out: Inhibition Rate at 10 nM (%); for inhibition at 0.5 µM: MV-4-11, 500 nM, read-out: Inhibition Rate at 500 nM (%). The test is classed as cell-based. In a few lines: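 IC50 is fitted from luminescent viability (CellTiter-Meiluncell) curves. Nine-point, 5-fold dilution series (top stock 2000 μM) are added at 0.5 μL per 100 μL medium to cells plated the day before, with growth at 37 °C and 5% CO2.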

The next test concerns the target T2, CDK4 (Homo sapiens, UniProt P11802+Q96SW2).
T2 construct: expression of target proteins in cells; endogenous in cells
In words: Western blot degradation of CDK4. Type of test: cell-based. The following applies: MDA-MB-231 Cell; 24 hours. In a few lines: (§4)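 Compound-treated cells harvested; lysates denatured 5 min at 95 °C, run on SDS-PAGE, blotted to NC membrane, blocked 1 h RT, probed with antibodies. Densitometry vs DMSO → DC50; target normalised to internal control → % remaining, degradation = 1 − remaining.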
In general terms: Immunoblotting shows a protein as a band on a membrane.

For test [4], the system named is Human large cell immunoblastic lymphoma cell line SR. In words: Inhibition of SR cell proliferation (CellTiter luminescent viability). The test is classed as cell-based. The following applies: Table IE1, CDK4/6 inhibitor-based, 96 hours, read-out: Inhibitory activity (IC50, nM) on tumor cell proliferation, SR. How it is done: as §1, §2, §3
The target of the next test is T3, CDK6 (Homo sapiens, UniProt Q00534+Q96SW2).
T3 construct: expression of target proteins in cells; endogenous in cells
In words: Western blot degradation of CDK6. Type of test: cell-based. Conditions: MDA-MB-231 Cell; 24 hours. The gist of the method:
as §4

The subject of test [5] is Human acute lymphocytic leukemia T lymphocytes cell line (CCRF-CEM). In words: Inhibition of CCRF-CEM cell proliferation (CellTiter luminescent viability). Type of test: cell-based. The following applies: Table IE1, CDK4/6 inhibitor-based, 96 hours, read-out: Inhibitory activity (IC50, nM) on tumor cell proliferation, CCRF-CEM.
Test [6] concerns Human Acute T Lymphoblastic Leukemia Cells (Molt-4). In words: Inhibition of Molt-4 cell proliferation (CellTiter luminescent viability). The following applies: Table IE1, CDK4/6 inhibitor-based; Molt-4, 96 hours; read-out: Inhibitory activity (IC50, nM) on tumor cell proliferation, Molt-4. The test is classed as cell-based.
Test [7] deals with Human lung cancer cell line (H292). In words: Inhibition of H292 cell proliferation (CellTiter luminescent viability). Type of test: cell-based. Conditions: NCI-H292, Table IE2, CDK4/6 inhibitor-based, 96 hours; for inhibition at 0.01 µM: H292, 10 nM, read-out: Inhibition Rate at 10 nM (%); for inhibition at 0.5 µM: H292, 500 nM, read-out: Inhibition Rate at 500 nM (%).

T3 sequence (Q00534 whole entry): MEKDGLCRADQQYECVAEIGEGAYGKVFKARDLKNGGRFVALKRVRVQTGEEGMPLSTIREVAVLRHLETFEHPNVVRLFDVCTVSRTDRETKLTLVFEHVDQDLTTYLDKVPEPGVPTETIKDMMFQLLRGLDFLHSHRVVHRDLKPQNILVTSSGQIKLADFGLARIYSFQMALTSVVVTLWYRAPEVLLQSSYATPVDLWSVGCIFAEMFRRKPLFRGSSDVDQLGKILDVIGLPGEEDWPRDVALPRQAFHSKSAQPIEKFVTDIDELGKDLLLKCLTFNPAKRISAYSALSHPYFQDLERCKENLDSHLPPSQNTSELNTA
T3 sequence (Q96SW2 whole entry): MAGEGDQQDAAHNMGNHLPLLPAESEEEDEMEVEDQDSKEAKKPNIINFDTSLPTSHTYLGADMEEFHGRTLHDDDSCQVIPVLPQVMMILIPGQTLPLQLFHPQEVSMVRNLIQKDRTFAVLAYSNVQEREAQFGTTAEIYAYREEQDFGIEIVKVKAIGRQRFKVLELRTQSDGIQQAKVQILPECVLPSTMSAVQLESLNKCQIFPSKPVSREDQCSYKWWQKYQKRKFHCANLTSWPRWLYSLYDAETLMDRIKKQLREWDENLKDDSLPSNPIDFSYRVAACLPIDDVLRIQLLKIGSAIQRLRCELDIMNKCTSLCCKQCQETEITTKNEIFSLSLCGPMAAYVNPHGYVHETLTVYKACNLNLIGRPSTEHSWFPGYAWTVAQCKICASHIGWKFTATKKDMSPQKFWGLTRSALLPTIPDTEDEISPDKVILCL
T3 sequence (Q16531 whole entry partner): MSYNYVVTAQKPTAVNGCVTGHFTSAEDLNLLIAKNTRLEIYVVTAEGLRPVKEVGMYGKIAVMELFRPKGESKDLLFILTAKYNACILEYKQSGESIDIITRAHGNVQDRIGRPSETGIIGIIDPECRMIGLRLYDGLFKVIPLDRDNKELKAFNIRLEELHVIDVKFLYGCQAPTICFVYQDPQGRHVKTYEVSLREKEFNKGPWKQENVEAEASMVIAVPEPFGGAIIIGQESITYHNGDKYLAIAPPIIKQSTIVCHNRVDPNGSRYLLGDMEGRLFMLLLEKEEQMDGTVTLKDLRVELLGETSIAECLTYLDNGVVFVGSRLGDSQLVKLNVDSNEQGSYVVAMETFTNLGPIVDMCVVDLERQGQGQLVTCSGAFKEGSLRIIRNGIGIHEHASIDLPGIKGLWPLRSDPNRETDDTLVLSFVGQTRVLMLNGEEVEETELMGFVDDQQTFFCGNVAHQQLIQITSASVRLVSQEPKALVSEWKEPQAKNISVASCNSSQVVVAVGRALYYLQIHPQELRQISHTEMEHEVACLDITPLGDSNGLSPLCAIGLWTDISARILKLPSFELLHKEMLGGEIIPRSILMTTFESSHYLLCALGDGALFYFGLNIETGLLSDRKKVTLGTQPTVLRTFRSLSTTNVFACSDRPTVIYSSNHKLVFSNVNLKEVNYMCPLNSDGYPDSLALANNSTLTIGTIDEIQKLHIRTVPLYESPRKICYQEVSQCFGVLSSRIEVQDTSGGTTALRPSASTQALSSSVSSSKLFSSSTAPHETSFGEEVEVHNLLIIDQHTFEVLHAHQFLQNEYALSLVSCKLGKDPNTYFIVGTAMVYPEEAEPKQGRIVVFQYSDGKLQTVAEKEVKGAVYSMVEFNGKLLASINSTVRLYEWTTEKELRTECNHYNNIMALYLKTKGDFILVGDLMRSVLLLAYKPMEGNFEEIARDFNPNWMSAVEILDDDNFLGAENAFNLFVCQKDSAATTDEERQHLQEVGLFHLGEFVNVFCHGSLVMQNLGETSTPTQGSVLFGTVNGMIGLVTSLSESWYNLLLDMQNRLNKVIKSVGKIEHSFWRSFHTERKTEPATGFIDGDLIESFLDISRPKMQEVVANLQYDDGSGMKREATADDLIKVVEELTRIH
T2 sequence (P11802 whole entry): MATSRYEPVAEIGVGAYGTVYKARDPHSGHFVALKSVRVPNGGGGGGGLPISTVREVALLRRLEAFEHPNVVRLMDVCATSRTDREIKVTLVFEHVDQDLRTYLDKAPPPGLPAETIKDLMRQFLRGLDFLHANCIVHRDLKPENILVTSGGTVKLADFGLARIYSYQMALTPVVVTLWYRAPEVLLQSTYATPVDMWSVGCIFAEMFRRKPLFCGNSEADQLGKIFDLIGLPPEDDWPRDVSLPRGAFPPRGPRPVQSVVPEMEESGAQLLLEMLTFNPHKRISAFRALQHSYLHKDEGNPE
T2 sequence (Q96SW2 whole entry): as the sequence (Q96SW2 whole entry) above
T2 sequence (Q16531 whole entry partner): as the sequence (Q16531 whole entry partner) above
T1 sequence (Q96SW2 whole entry): as the sequence (Q96SW2 whole entry) above

In the case of `CCN(c1cc(-c2ccc(N3CCC(N(C)Cc4ccc5c(c4)CN(N4CCC(=O)NC4=O)C5=O)CC3)cc2)cc(C(=O)NCc2c(C)cc(C)[nH]c2=O)c1C)C1CCOCC1` [GT-08512, N-((4,6-dimethyl-2-oxo-1,2-dihydropyridin-3-yl)methyl)-4′-(4-(((2-(2,4-dioxotetrahydropyrimidin-1(2H)-yl)-1-oxoisoindolin-5-yl)methyl)(methyl)amino)piperidin-1-yl)-5-(ethyl(tetrahydro-2H-pyran-4-yl)amino)-4-methyl-[1,1′-biphenyl]-3-carboxamide], the inhibition at 0.01 µM in test [1] (10 nM, read-out: Inhibition Rate at 10 nM (%)) was in the range of 10 to 15%. The inhibition at 0.5 µM in test [1] (500 nM, read-out: Inhibition Rate at 500 nM (%)) lay within 20 to 30%.
In the case of `Cc1nc2c(F)cc(-c3nc(Nc4ccc(CN5CCN(CC6CCN(c7cccc8c7C(=O)N(N7CCC(=O)NC7=O)C8=O)CC6)CC5)cn4)ncc3F)cc2n1C(C)C` [GT-06663, 2-(2,4-dioxotetrahydropyrimidin-1(2H)-yl)-4-(4-((4-((6-((5-fluoro-4-(4-fluoro-1-isopropyl-2-methyl-1H-benzo[d]imidazol-6-yl)pyrimidin-2-yl)amino)pyridin-3-yl)methyl)piperazin-1-yl)methyl)piperidin-1-yl)isoindoline-1,3-dione], in test [2] (0.5 μM), the “Inhibition Rate at 0.5 μM (%)” value is “a2 (20% < a2 ≤ 30%)”. Besides, in test [2] (2 μM), the “Inhibition Rate at 2 μM (%)” value is on record as “a5 (53% < a5 ≤ 60%)”. In addition, the results for the IC50 in test [3] and in test [4] were 10 to 50 nM and 400 to 800 nM, respectively. For the same compound, on CDK4, the “Degradation of substrate protein CDK4 (substrate protein remaining %)” value is listed as “B (80%<substrate protein remaining %≤100%)”. Moreover, the “Degradation of substrate protein CDK6 (substrate protein remaining %)” value at CDK6 is on record as “A (0%≤substrate protein remaining %≤80%)”.
As for `Cc1nc2c(F)cc(-c3nc(Nc4ccc(N5CCC(N(C)CC6CCN(c7cccc8c7C(=O)N(N7CCC(=O)NC7=O)C8=O)CC6)CC5)cn4)ncc3F)cc2n1C(C)C` [GT-06734, 2-(2,4-dioxotetrahydropyrimidin-1(2H)-yl)-4-(4-(((1-(6-((5-fluoro-4-(4-fluoro-1-isopropyl-2-methyl-1H-benzo[d]imidazol-6-yl)pyrimidin-2-yl)amino)pyridin-3-yl)piperidin-4-yl)(methyl)amino)methyl)piperidin-1-yl)isoindoline-1,3-dione], the IC50 fell in the range of 400 to 800 nM in test [5], 50 to 100 nM in [3], 400 to 800 nM in [6] and 100 to 300 nM in [4]. For the same compound, the “Degradation of substrate protein CDK4 (substrate protein remaining %)” value on CDK4 is on record as “A (0%≤substrate protein remaining %≤80%)”. Also, at CDK6, the “Degradation of substrate protein CDK6 (substrate protein remaining %)” value was “A (0%≤substrate protein remaining %≤80%)”.
With `CN(C)C(=O)c1cc2cnc(Nc3ccc(N4CCC(CN5C6CCC5CN(c5ccc7c(c5)C(=O)N(N5CCC(=O)NC5=O)C7=O)C6)CC4)cn3)nc2n1C1CCCC1` [GT-05812, 7-cyclopentyl-2-((5-(4-((3-(2-(2,4-dioxotetrahydropyrimidin-1(2H)-yl)-1,3-dioxoisoindolin-5-yl)-3,8-diazabicyclo[3.2.1]octan-8-yl)methyl)piperidin-1-yl)pyridin-2-yl)amino)-N,N-dimethyl-7H-pyrrolo[2,3-d]pyrimidine-6-carboxamide], in [3], the inhibition at 0.01 µM was in the range of 15 to 20% and the inhibition at 0.5 µM was 40 to 60%. In addition, in [7], the inhibition at 0.01 µM was 35 to 40% and the inhibition at 0.5 µM was in the range of 30 to 35%. For the same compound, the “Degradation of substrate protein CDK4 (substrate protein remaining %)” value on CDK4 is recorded as “B (80%<substrate protein remaining %≤100%)”. The “Degradation of substrate protein CDK6 (substrate protein remaining %)” value at CDK6 was “A (0%≤substrate protein remaining %≤80%)”.
For the compound `CC(=O)c1c(C)c2cnc(Nc3ccc(N4CCN(Cc5ccc6c(c5)CN(N5CCC(=O)NC5=O)C6=O)CC4)cn3)nc2n(C2CCCC2)c1=O` [GT-06573, 1-(5-((4-(6-((6-acetyl-8-cyclopentyl-5-methyl-7-oxo-7,8-dihydropyrido[2,3-d]pyrimidin-2-yl)amino)pyridin-3-yl)piperazin-1-yl)methyl)-1-oxoisoindolin-2-yl)dihydropyrimidine-2,4 (1H,3H)-dione], in test [3], the inhibition at 0.01 µM was 40 to 60% and the inhibition at 0.5 µM was 60 to 80%. In test [7], the inhibition at 0.01 µM lay in the range of 30 to 35% and the inhibition at 0.5 µM fell in the range of 40 to 60%. Moreover, the “Degradation of substrate protein CDK4 (substrate protein remaining %)” value on CDK4 is given as “B (80%<substrate protein remaining %≤100%)”. Further, the “Degradation of substrate protein CDK6 (substrate protein remaining %)” value on CDK6 was “A (0%≤substrate protein remaining %≤80%)”.
Regarding `Cc1nc2c(F)cc(-c3nc(Nc4ccc(N5CCC(N6CCN(Cc7ccc8c(c7)C(=O)N(N7CCC(=O)NC7=O)C8=O)CC6)CC5)cn4)ncc3F)cc2n1C(C)C` [GT-06737, 2-(2,4-dioxotetrahydropyrimidin-1(2H)-yl)-5-((4-(1-(6-((5-fluoro-4-(4-fluoro-1-isopropyl-2-methyl-1H-benzo[d]imidazol-6-yl)pyrimidin-2-yl)amino)pyridin-3-yl)piperidin-4-yl)piperazin-1-yl)methyl)isoindoline-1,3-dione], the IC50 lay within 300 to 400 nM in test [3] and 100 to 300 nM in [4]. In addition, the “Degradation of substrate protein CDK4 (substrate protein remaining %)” value on CDK4 is listed as “B (80%<substrate protein remaining %≤100%)”. The “Degradation of substrate protein CDK6 (substrate protein remaining %)” value at CDK6 is reported as “A (0%≤substrate protein remaining %≤80%)”.
In the case of `Cc1nc2c(F)cc(-c3nc(Nc4ccc(N5CCC(N(C)CC6CCN(c7ccc8c(c7)C(=O)N(N7CCC(=O)NC7=O)C8=O)CC6)CC5)cn4)ncc3F)cc2n1C(C)C` [GT-06733, 2-(2,4-dioxotetrahydropyrimidin-1(2H)-yl)-5-(4-(((1-(6-((5-fluoro-4-(4-fluoro-1-isopropyl-2-methyl-1H-benzo[d]imidazol-6-yl)pyrimidin-2-yl)amino)pyridin-3-yl)piperidin-4-yl)(methyl)amino)methyl)piperidin-1-yl)isoindoline-1,3-dione], the IC50 in test [5] lay in the range of 100 to 300 nM; in test [3], 10 to 50 nM; in test [6], 100 to 300 nM; in test [4], 100 to 300 nM. Also, the “Degradation of substrate protein CDK4 (substrate protein remaining %)” value on CDK4 is on record as “A (0%≤substrate protein remaining %≤80%)”. Further, the “Degradation of substrate protein CDK6 (substrate protein remaining %)” value at CDK6 is recorded as “A (0%≤substrate protein remaining %≤80%)”.

(Values after patent US20260364184A1, “COMPOUND BASED ON OXOISOINDOLINYL-SUBSTITUTED TETRAHYDROPYRIMIDINE-DIONE AND USE THEREOF” (GLUETACS THERAPEUTICS (SHANGHAI) CO., LTD., priority 2023, published 2026).)
